The subject of series [1] is AMP-activated protein kinase (AMPK). The conditions noted are these: cited from earlier work. An excerpt:
(§1) An alternate potential strategy is to mimic adiponectin biological activity using small molecules.

The subject of another series is C57BL6/J mice. Kind of series: Bleomycin-induced skin fibrosis in mice. Format: in vivo, mouse. Particulars: mice treated with ADP27, Supplementary Fig. 9a,b. An excerpt: Bleomycin (BLM) or phosphate buffered saline (PBS) was given by daily subcutaneous (s.c.) injection for 14 consecutive days[55]. In some experiments, mice were given a single s.c. injection of adenovirus expressing constitutively-active TGF-ß1 (TGFß1^223/225 3x10^9 PFU/ml) or beta-galactosidase (5x10^9 PFU/ml)[56]. Peritoneal fibrosis was induced by i.p. injections of 0.1% chlorhexidine gluconate (CG; Wako Pure Chemical Industries, Osaka, Japan) dissolved in 15% ethanol/PBS given on alternate days for 21 days[35]. Synthetic peptides targeting AdipoR (ADP355 or ADP27)[37] or vehicle (PBS) at the indicated concentrations were administered by daily i.p. injection for 14 or 24 days. Each experimental group consisted of 4–8 mice, and experiments were repeated at least two times with consistent results. At the end of the experiments, mice were sacrificed and blood and tissue were collected for analysis.
Harvested skin or parietal peritoneal membrane samples were fixed in PFA, embedded in paraffin and 4 μm thick sections were stained with hematoxylin and eosin (H&E). Collagen deposition and organization were assessed using Masson’s Trichrome staining. Thickness of the dermis, dWAT or peritoneal membrane were determined at five randomly selected locations/slide using ImageJ software.
Collagen content of lesional skin was determined by measuring the hydroxyproline content in 6-mm punch biopsy samples (BioVision, Milpitas, CA) (16). Serum levels of adiponectin were determined by ELISA which measures all adiponectin isoforms (Millipore; #EZMADP-60K)[9].
RNA was isolated from skin samples using RNAeasy Fibrous Tissue Mini kit (Qiagen, Valencia, CA), or from fibroblast cultures, using the RNeasy Plus mini kit (Qiagen), and processed for qPCR as described. mRNA levels were normalized to the levels of 18 S RNA or GAPDH, and the relative amounts were calculated using the 2^−ΔΔCt method.

For series [2] the following is noted: cited from earlier work.
Source text: as §1

This is an account of results in article PMC5493638, “Adiponectin is an endogenous anti-fibrotic mediator and therapeutic target” (Scientific Reports, 2017).

For the molecule `NC(=O)c1ncn([C@@H]2O[C@H](CO)[C@@H](O)[C@H]2O)c1N` [AICAR], the “effect on or relative to the anti-fibrotic activities of adiponectin” value in series [1] is “mimicked”. For the molecule `c1cc(-c2cnn3cc(-c4ccc(OCCN5CCCCC5)cc4)cnc23)ccn1` [Compound C], the “effect on or relative to the anti-fibrotic activities of adiponectin” value in series [1] is on record as “blocked”. Turning to “H-LYYFAYHITV-NH2 [ADP27, H-Leu-Tyr-Tyr-Phe-Ala-Tyr-His-Ile-Thr-Val-NH2]”, the “anti-fibrotic effects in mice compared with ADP355” value in the series with C57BL6/J mice is “Comparable anti-fibrotic effects”.

B1: adiponectin: 30 kDa secreted adipokine abundant in the circulation (protein, UniProt Q15848 19-244, looked up)
Adiponectin: ETTTQGPGVLLPLPKGACTGWMAGIPGHPGHNGAPGRDGRDGTPGEKGEKGDPGLIGPKGDIGETGVPGAEGPRGFPGIQGRKGEPGEGAYVYRSAFSVGLETYVTIPNMPIRFTKIFYNQQNHYDGSTGKFHCNIPGLYYFAYHITVYMKDVKVSLFKKDKAMLFTYDQYQENNVDQASGSVLLHLEVGDQVWLQVYGEGERNGLYADNDNDSTFTGFLLYHDTN
As to B1, in series [2], the half-life result is “relatively short half-life” and the solubility entry is “extreme insolubility”.
